Results reported in patent publication US20070031511A1, “Method of treatment” (priority 2003, published 2007).
Where two headings read alike, the source gives them in different places. Where a SMILES comes first, the peptide text is derived from it. Where no end group is shown, it is not given here. [ ]: non-standard residue; d: D form. pGlu = O=C1CC[C@@H](C(=O)O)N1

Tests used:
[1] = Quenching of peptide tryptophan fluorescence by ferric ions (stoichiometry, apparent Kd); assay type: binding; details: 10 mM sodium acetate pH 4.0, 100 mM NaCl, 0.005% Tween 20; mean ± S.E.; read-out: Kd (μM), apparent dissociation constant for ferric ions
Experimental: The tryptophan fluorescence of peptide solutions was measured in 3 mL quartz cuvettes thermostated at […], with a Spex Fluorolog-2 spectrofluorimeter (Spex Industries, Edison, N.J.), with the excitation and emission wavelengths set at 290 and 345 nm, respectively. The quenching of tryptophan fluorescence induced by the binding of metal ions was used to calculate the fraction of binding sites occupied, fa: fa=(yf−y)/(yf−yb) where y is the fluorescence signal at a given concentration of metal ions and yb and yf are the signals when the binding sites are fully occupied and unoccupied, respectively (Winzor et al, 1995). The stoichiometry, p, and apparent dissociation constant, Kd, were then obtained, using the program Sigmastat (Jandel Scientific, San Rafael, Calif.), from the intercept and slope of a linear regression of the data transformed as described by Winzor and Sawyer (1995) in terms of the equation Cs/fa=pCa+Kd/(1−fa) where Cs is the total concentration of metal ions, and Ca is the total concentration of glycine-extended gastrin17. For the bismuth binding studies, the data was fitted by non-linear regression with the program Sigmaplot (Jandel Scientific, San Rafael, Calif.) to the equations for models with one binding site or two binding sites with identical affinities: fa=x/(Kd1+x) or to the model with two binding sites with different affinities: fa=(Kd1·x+Kd2·x+2x^2)/2(Kd1·Kd2+Kd1·x+Kd2·x+x^2) where x is the concentration of free metal ions, Kd1 is the first site dissociation constant and Kd2 is the second site dissociation constant. For the one-site model the value of x at any given total concentration of metal ions was obtained by exact solution of the appropriate quadratic (Malby et al, 2001). For the two-site models the value of x was obtained by an iterative Newton-Raphson procedure (Linse et al, 1991). Absorption Spectroscopy
The tryptophan fluorescence of progastrin6-80, glycine-extended gastrin17 and related peptides was measured in the presence of increasing concentrations of ferric ions in 10 mM sodium acetate, pH 4.0, 100 mM NaCl, 0.005% Tween 20. […] Values from the indicated number of independent experiments were combined to obtain the mean values (±S.E.) presented above. No binding of ferric ions to Ggly1-4 or Ggly12-18 was observed.
The tryptophan fluorescence of amidated gastrin17 and related peptides was measured in the presence of increasing concentrations of ferric ions at pH 4.0 (8). Values of the stoichiometry and the apparent dissociation constant (Kd) were obtained from linear transformations of the data presented in FIG. 20A by least squares fitting. Values from the indicated number of independent experiments were combined to obtain the mean values (±S.E.) presented above.

IMGE-5 cells [2] = test: IMGE-5 cell proliferation, MTT assay; assay type: cell-based, mice; details: MTT assay, peptides shown at 1 nM (FIGS. 7A, 8A)
Experimental: (§1) The IMGE-5 cell line was established from the gastric mucosa of mice transgenic for a temperature-sensitive mutant of the SV40 large T antigen (Hollande et al, 2001). IMGE-5 cells were generally grown at 33° C. in DMEM containing 1 unit/ml γ-interferon, 10% FBS, 100 U/ml penicillin, and 100 μg/ml streptomycin (permissive conditions). For all experiments, cells were transferred to 39° C. in the same medium without […] (non-permissive conditions), where they display differentiated characteristics such as expression of functional adherens and tight junctions. All experiments have been performed on cells between passages 20 and 35.
A colorimetric assay was used to measure cell proliferation. Briefly, IMGE-5 cells were seeded in a 96-well plate at a density of 10^4 cells/well in DMEM containing 10% FBS and antibiotics. The following day, cells were synchronized in Go by incubation for 24 h in the same medium lacking FBS. The medium was replaced the next day with fresh medium containing 1% FBS and antibiotics and the peptides under investigation, and incubation was continued for 72 h. 15 μl of 5 mg/ml 3-(4,5-dimethylthiazol-2-yl)-2-5-diphenyltetrazolium bromide (MTT, Sigma, St Louis Mo.) was added per well, and the plate was incubated at 37° C. for 4 h before the medium was discarded. 200 μl 40 mM HCl in isopropanol was added to lyse the cells, and the absorbance at 570 nm was read on a BioRad Model 550 Microplate reader (BioRad, Hercules, Calif.).

IMGE-5 cells [3] = test: Wound healing / cell migration assay; assay type: cell-based, mice; details: wound healing assay, fragments and mutants shown at 1 nM (FIGS. 7B, 8B)
Experimental: as §1
In order to assess the effects of different stimuli on cell migration, wound healing experiments were performed as detailed elsewhere (Hollande et al, 1997). In brief, IMGE-5 cells were grown in 12-well plates in DMEM at 33° C. until they reached 80% confluence, then shifted to 39° C. and starved of serum for 24 h. The confluent monolayer was wounded using a 20 μl-pipette tip, and cells were then washed 3 times with phosphate-buffered saline (PBS: 2.7 mM KCl, 1.5 MM KH2PO4, 142 mM NaCl, and 10 mM Na2HPO4, pH 6.95) and treated with or without different compounds in DMEM with antibiotics. Morphology and migration of cells were observed and photographed immediately, and after treatment for 17 and 24 h. Wound width was measured at six different positions on the 24 h photographs, and averages calculated.

rectal mucosa = test: Proliferation in the rectal mucosa of rectally defunctioned rats (metaphase-arrested cells); assay type: in vivo; details: infused intraperitoneally 2.5 nmol/kg/hr, 4 weeks
Experimental: DFO (400 mg/kg) was administered intraperitoneally thrice weekly, and bismuth ions were administered as colloidal bismuth subcitrate (135 mg/kg/12 hours) by oral gavage 5 days per week. After 4 weeks, the rats were injected with vincristine to arrest cycling cells in metaphase, and sacrificed 3 hrs later. Crypt heights in the rectal mucosa, and the number of metaphase arrested cells per crypt, were then determined microscopically.

[4] = read-out: Apparent first dissociation constant of complex with ferric ions, cited from earlier work
[5] = Solubility of peptides in NMR sample preparation; assay type: physicochemical; details: NMR sample conditions, pH 5.3
Experimental: For the subsequent experiments, samples were prepared for NMR spectroscopy by dissolving 2.5 mg of peptide in 0.6 ml of 10% DMSO/10% ^2H2O/80% H2O at 278 K. The pH was adjusted with small amounts of 1M NaO^2H or ^2HCl to pH 5.3. ^1H chemical shifts were referenced to 2,2-dimethyl-2-silapenthane-5-sulfonate at 0 ppm via the chemical shift of the H2O resonance or an impurity at 0.15 ppm. NMR spectra were recorded on Bruker DRX-600 and AMX-500 instruments, as described previously (Barnham et al, 1999).
The peptides LE5AYG, LE5A, E5AY and E5A (approximately 2 mM) were dissolved in H2O with 5 or 10% ^2H2O. […] Sequence-specific ^1H NMR resonance assignments were made from two-dimensional nuclear Overhauser enhancement spectroscopy (NOESY) and total correlation spectroscopy (TOCSY).

[6] = target: T1, recombinant human progastrin6-80 (Homo sapiens, UniProt P01350); test: Competition of metal ions with 59Fe3+ for binding to progastrin6-80; details: metal ions 100 μM, 59Fe3+ 10 μM, progastrin6-80 5.6 μM
T1 construct: made in house
T1 sequence (P01350 27-101): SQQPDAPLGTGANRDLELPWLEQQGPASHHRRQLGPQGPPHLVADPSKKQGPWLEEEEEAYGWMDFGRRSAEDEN
Experimental: In order to determine the specificity of the interaction between progastrin and metal ions, the binding of metal ions to recombinant human progastrin6-80 was determined by measuring their ability to compete with radioactive ^59Fe^3+ for binding to the protein by the following methods (Baldwin et al, 2001).
Progastrin6-80 (5.6 μM) in pH 2.8 buffer (10 mM sodium formate, pH 2.8, 100 mM NaCl, 0.005% Tween 20) was incubated for 30 min at 4° C. with ^59Fe^3+ ions (10 μM, 23.6 cpm/pmol) in the presence of several di- and trivalent metal ions (100 μM). Excess radioactivity was removed by overnight dialysis (SpectraPor dialysis tubing, molecular weight cut-off 3,500, Spectrum Labs., Rancho Dominguez, Calif.) at 4° C. against pH 4.0 buffer (10 mM sodium acetate, pH 4.0, 100 mM NaCl, 0.005% Tween 20), containing 1 µM EDTA. The radioactivity associated with progastrin6-80 was determined by counting aliquots of the internal and external solutions in a γ-counter (LKB-Wallac, Turku, Finland).

[7] = pH 4.0; Ref. 8 given in table; read-out: Kd (μM), apparent dissociation constant for ferric ions; cited from earlier work

Row | Molecule | Kd [1] [µM] | Stimulation of IMGE-5 cell proliferation (IMGE-5 cells [2]) | Stimulation of IMGE-5 cell migration (IMGE-5 cells [3]) | further results
1 | GglyE7A: Ggly mutant, Glu7 replaced by Ala, SEQ ID NO:11 ([pGlu]GPWLEAEEEAYGWMDFG; ends and bridges not checked) | 0.2 ± 0.01 | inactive | inactive | Stimulation of rectal mucosal proliferation (rectal mucosa): able to stimulate mucosal proliferation as well as Ggly
2 | O=C(O)CN(CC(=O)O)CC(=O)O [nitrilotriacetic acid] |  |  |  | Kd ([4]; pH 4.0): 830 nM; Kd ([4]; pH 7.6): 0.19 nM
3 | CSCC[C@H](NC(=O)[C@H](Cc1c[nH]c2ccccc12)NC(=O)CNC(=O)[C@H](Cc1ccc(O)cc1)NC(=O)[C@H](C)NC(=O)[C@H](C)NC(=O)[C@H](C)NC(=O)[C@H](C)NC(=O)[C@H](CCC(=O)O)NC(=O)[C@H](CCC(=O)O)NC(=O)[C@H](CC(C)C)NC(=O)[C@H](Cc1c[nH]c2ccccc12)NC(=O)[C@@H]1CCCN1C(=O)CNC(=O)[C@@H]1CCC(=O)N1)C(=O)N[C@@H](CC(=O)O)C(=O)N[C@@H](Cc1ccccc1)C(=O)NCC(=O)O [GglyE8-10A] ([pGlu]GPWLEEAAAAYGWMDFG-OH) | 0.37 ± 0.07 | active in proliferation assays, although less so than Ggly |  | Solubility [5]: Poor solubility
4 | CSCC[C@H](NC(=O)[C@H](Cc1c[nH]c2ccccc12)NC(=O)CNC(=O)[C@H](Cc1ccc(O)cc1)NC(=O)[C@H](C)NC(=O)[C@H](C)NC(=O)[C@H](C)NC(=O)[C@H](C)NC(=O)[C@H](C)NC(=O)[C@H](C)NC(=O)[C@H](CC(C)C)NC(=O)[C@H](Cc1c[nH]c2ccccc12)NC(=O)[C@@H]1CCCN1C(=O)CNC(=O)[C@@H]1CCC(=O)N1)C(=O)N[C@@H](CC(=O)O)C(=O)N[C@@H](Cc1ccccc1)C(=O)NCC(=O)O [GglyE6-10A] ([pGlu]GPWLAAAAAAYGWMDFG-OH) | 1.2 ± 0.11 | inactive | inactive | Solubility [5]: Poor solubility
5 | [Fe+2] [ferrous ions] |  |  |  | Ability to compete with 59Fe3+ for binding to progastrin6-80 [6]: able to compete effectively
6 | [Fe+3] [ferric ions] |  |  |  | Ability to compete with 59Fe3+ for binding to progastrin6-80 [6]: able to compete effectively
7 | LE5AYGWMDFG (LEEEEEAYGWMDFG; listed as Homo sapiens) [Ggly5-18] |  | to the same extent as Ggly | to the same extent as Ggly | Stimulation of IMGE-5 cell proliferation (IMGE-5 cells [2]; listed as LE5AYGWMDFG): fully active; Stimulation of IMGE-5 cell migration (IMGE-5 cells [3]; listed as LE5AYGWMDFG): fully active; Kd [7]: 0.58 ± 0.19 µM
